According to ChEMBL document CHEMBL3045212, “Synthesis of some imidazolyl-substituted 2-benzylidene indanone derivatives as potent aromatase inhibitors for breast cancer therapy” (Med Chem Res, 2011):
pIC50: −log10 of the molar value.

Legend:
Aromatase [1] = biological target: T1, Aromatase (Homo sapiens, UniProt P11511); test: Inhibition of Homo sapiens (human) aromatase assessed as 3H2O formation using [1beta,2beta-3H]testosterone as substrate at 36 uM by liquid scintillation counting analysis
T1 sequence (P11511 whole entry): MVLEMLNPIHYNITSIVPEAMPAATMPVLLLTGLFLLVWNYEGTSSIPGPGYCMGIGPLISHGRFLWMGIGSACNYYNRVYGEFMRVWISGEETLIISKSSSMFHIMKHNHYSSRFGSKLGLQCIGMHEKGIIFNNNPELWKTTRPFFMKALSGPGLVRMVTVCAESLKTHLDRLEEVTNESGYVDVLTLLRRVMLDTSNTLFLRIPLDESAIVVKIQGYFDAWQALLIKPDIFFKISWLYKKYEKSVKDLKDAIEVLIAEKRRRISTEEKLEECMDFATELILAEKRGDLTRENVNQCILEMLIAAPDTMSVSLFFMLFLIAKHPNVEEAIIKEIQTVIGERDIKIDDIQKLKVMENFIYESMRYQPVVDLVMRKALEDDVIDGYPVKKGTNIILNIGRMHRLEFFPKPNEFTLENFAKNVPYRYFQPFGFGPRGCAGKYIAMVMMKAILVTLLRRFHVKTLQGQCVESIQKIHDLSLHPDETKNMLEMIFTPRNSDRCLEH

Aromatase [2] = biological target: T1, Aromatase; test: Ratio of aminoglutethimide IC50 to compound IC50 for Homo sapiens (human) aromatase
Aromatase [3] = biological target: T1, Aromatase; test: Inhibition of Homo sapiens (human) aromatase assessed as 3H2O formation using [1beta,2beta-3H]testosterone as substrate by liquid scintillation counting analysis

SMILES	inhibition at 36 µM (Aromatase [1]) [%]	pIC50 (Aromatase [3])	Ratio IC50 (Aromatase [2])	other results
COc1cc(/C=C2\Cc3ccccc3C2=O)ccc1OCCN(C)C				inhibition (INH) (Aromatase [1]; 36 µM): Not Active
COc1ccc(/C=C2\Cc3ccccc3C2=O)cc1OCCCCl	8			
O=C1/C(=C/c2cccc(OCCCCl)c2)Cc2ccccc21	13			
COc1cc(/C=C2\Cc3ccccc3C2=O)ccc1OCCCn1ccnc1			54.1	
O=C1/C(=C/c2ccccc2OCCCn2ccnc2)Cc2ccccc21		5.96	26.6	
O=C1/C(=C/c2cccc(OCCCn3ccnc3)c2)Cc2ccccc21		6.15	42.5	

More lines, main results first:

inhibition at 36 µM (Aromatase [1]) [%]	pIC50 (Aromatase [3])	SMILES	Ratio IC50 (Aromatase [2])	other results
6		O=C1/C(=C/c2c[nH]c3ccccc23)Cc2ccccc21		
8.5		COc1cc(/C=C2\Cc3ccccc3C2=O)ccc1OCCCCl		
8		O=C1/C(=C/c2ccccc2OCCCCl)Cc2ccccc21		
	5.87	COc1ccc(/C=C2\Cc3ccccc3C2=O)cc1OCCCn1ccnc1	22.5	
